Source: ChEMBL document CHEMBL1772993, “Design and synthesis of novel N-hydroxy-dihydronaphthyridinones as potent and orally bioavailable HIV-1 integrase inhibitors” (J Med Chem, 2011)

Assay: Octanol-buffer distribution coefficient, log D of the compound at pH 7.4
Assay type: physicochemical
Details: not given

SMILES | logD
N#Cc1cc(F)ccc1Cn1ccc2c3c(ncc21)C(=O)N(O)CC3 | 1.15
O=C1c2ncc3c(ccn3Cc3ccc(F)cn3)c2CCN1O | 0.6
O=C1c2ncc3c(c(COCc4ccccc4F)cn3Cc3ccc(F)cc3)c2CCN1O | 2.47
O=C1c2ncc3c(ccn3Cc3ncc(F)cc3F)c2CCN1O | 0.77
CC1CCN(S(=O)(=O)c2cn(Cc3ccc(F)cc3)c3cnc4c(c23)CCN(O)C4=O)CC1 | 2.14
O=C1c2ncc3c(c(CN4CCC(F)(F)C4)cn3Cc3ccc(F)cc3)c2CCN1O | 2.02
N#Cc1c(Cn2ccc3c4c(ncc32)C(=O)N(O)CC4)ccc(F)c1Cl | 1.7
O=C1c2ncc3c(c(COCCCc4ccccn4)cn3Cc3ccc(F)cc3)c2CCN1O | 2.15
O=C1c2ncc3c(ccn3Cc3ccc(F)cc3)c2CCN1O | 1.39
O=C1c2ncc3c(c(S(=O)(=O)N4CCOCC4)cn3Cc3ccc(F)cc3)c2CCN1O | 0.18
CN(O)C(=O)c1cc2ccn(Cc3ccc(F)cc3)c2cn1 | 2.04
CN(O)C(=O)c1cc2c(CN3CCC[C@H]3C(N)=O)cn(Cc3ccc(F)cc3)c2cn1 | 1.7
O=C1c2ncc3c(c(S(=O)(=O)N4CCCC4)cn3Cc3ccc(F)cc3)c2CCN1O | 1.63

Second part, the compound after the results:

logD | SMILES
1.63 | O=C1c2ncc3c(c(COCc4ccccn4)cn3Cc3ccc(F)cc3)c2CCN1O
0.89 | CN(C)Cc1cn(Cc2ccc(F)cc2)c2cnc3c(c12)CCN(O)C3=O
1.52 | CN(Cc1cn(Cc2ccc(F)cc2)c2cnc3c(c12)CCN(O)C3=O)CC1CC1
0.76 | CC(=O)N(C)CCCc1cn(Cc2ccc(F)cc2)c2cnc3c(c12)CCN(O)C3=O
-0.74 | O=C(O)CCc1cn(Cc2ccc(F)cc2)c2cnc3c(c12)CCN(O)C3=O
2.32 | O=C1c2ncc3c(c(CCC(F)(F)F)cn3Cc3ccc(F)cc3)c2CCN1O
0.67 | CN(CCO)Cc1cn(Cc2ccc(F)cc2)c2cnc3c(c12)CCN(O)C3=O
1.83 | O=C1c2ncc3c(c(COCC4CCOCC4)cn3Cc3ccc(F)cc3)c2CCN1O
1.67 | CC(C)(O)CCc1cn(Cc2ccc(F)cc2)c2cnc3c(c12)CCN(O)C3=O
1.14 | COCCN(C)S(=O)(=O)c1cn(Cc2ccc(F)cc2)c2cnc3c(c12)CCN(O)C3=O
0.1 | O=C1c2ncc3c(c(CCCN4CCOCC4)cn3Cc3ccc(F)cc3)c2CCN1O
1.29 | CN(C)S(=O)(=O)c1cn(Cc2ccc(F)cc2)c2cnc3c(c12)CCN(O)C3=O
1.46 | COCCN(C)Cc1cn(Cc2ccc(F)cc2)c2cnc3c(c12)CCN(O)C3=O
2.1 | O=C1c2ncc3c(c(CCCOC4CCOCC4)cn3Cc3ccc(F)cc3)c2CCN1O
1.56 | O=C1c2ncc3c(c(COCCc4ccccn4)cn3Cc3ccc(F)cc3)c2CCN1O
2.12 | CC(C)OCCOCc1cn(Cc2ccc(F)cc2)c2cnc3c(c12)CCN(O)C3=O
1.15 | O=C1c2ncc3c(c(CN4CCCCC4)cn3Cc3ccc(F)cc3)c2CCN1O

Assay: Clearance in dog
Assay type: ADME, organism-based, Canis lupus familiaris
Details: in vivo

clearance [mL/min/kg] | SMILES
15 | CN(O)C(=O)c1cc2c(CN3CCC[C@H]3C(N)=O)cn(Cc3ccc(F)cc3)c2cn1

Assay: Half life in dog at 1 mg/kg, iv and 4.2 mg/kg, po
Assay type: ADME, organism-based, Canis lupus familiaris
Details: in vivo

half-life [h] | SMILES
2.6 | O=C1c2ncc3c(c(CN4CCCCC4)cn3Cc3ccc(F)cc3)c2CCN1O

Assay: Oral bioavailability in dog at 4.2 mg/kg
Assay type: ADME, organism-based, Canis lupus familiaris
Details: in vivo

bioavailability [%] | SMILES
33 | O=C1c2ncc3c(c(CN4CCCCC4)cn3Cc3ccc(F)cc3)c2CCN1O

Assay: Volume of distribution at steady state in dog at 1 mg/kg, iv and 4.2 mg/kg, po
Assay type: ADME, organism-based, Canis lupus familiaris
Details: in vivo, read-out: Vdss

Vd [L/kg] | SMILES
6.7 | O=C1c2ncc3c(c(CN4CCCCC4)cn3Cc3ccc(F)cc3)c2CCN1O

Assay: Clearance in dog at 1 mg/kg, iv and 4.2 mg/kg, po
Assay type: ADME, organism-based, Canis lupus familiaris
Details: in vivo

clearance [mL/min/kg] | SMILES
30 | O=C1c2ncc3c(c(CN4CCCCC4)cn3Cc3ccc(F)cc3)c2CCN1O
